In patent US11426371B2, “Compositions and methods for treating cancer” (University of Virginia Patent Foundation, priority 2017, dated 2022):
Where two headings read alike, the source gives them in different places.

How the values were obtained:
[1] = tested on: HL60/ABTR; test: Cell viability, panel of AML cell lines; assay type: cell-based; conditions: Homo sapiens, HL-60, HL60/ABTR cells (drug resistant variant)
Experimental: (§1) Representative human AML cell lines (FIG. 2A; upper and lower panels) HL60/VCR and (FIG. 2B; upper and lower panels) OCI-AML2 were treated with SACLAC for 24 and 48 hours. Viability was assessed by MTS assay at 24 and 48 hours and apoptosis was assessed by flow cytometry at 48 hours. Upper panels represent % viability and lower panels indicate % apoptosis.
(§2) Two representative human-derived AML cell lines, HL60/VCR and OCI-AML2, are shown. These studies have been expanded to a large panel of additional human AML cell lines (n=30, Table 1).

[2] = tested on: HL60/VCR; test: Cell viability, panel of AML cell lines; assay type: cell-based; conditions: Homo sapiens, HL60/VCR cells (drug resistant variant)
Experimental: as §1, §2

[3] = tested on: KGI; test: Cell viability, panel of AML cell lines; assay type: cell-based; conditions: Homo sapiens, KGI cells
Experimental: as §1, §2

[4] = tested on: Kasumi-3; test: Cell viability, panel of AML cell lines; assay type: cell-based; conditions: Homo sapiens, Kasumi-3 cells
Experimental: as §1, §2

[5] = tested on: ME-1; test: Cell viability, panel of AML cell lines; assay type: cell-based; conditions: Homo sapiens, ME-1 cells
Experimental: as §1, §2

[6] = tested on: MM-6; test: Cell viability, panel of AML cell lines; assay type: cell-based; conditions: Homo sapiens, MM-6 cells
Experimental: as §1, §2

[7] = tested on: MV4-11; test: Cell viability, panel of AML cell lines; assay type: cell-based; conditions: Homo sapiens, MV4-11 cells
Experimental: as §1, §2

[8] = tested on: NOMO1; test: Cell viability, panel of AML cell lines; assay type: cell-based; conditions: Homo sapiens, NOMO-1, NOMO1 cells
Experimental: as §1, §2

[9] = tested on: OCI-AML2; test: Cell viability, panel of AML cell lines; assay type: cell-based; conditions: Homo sapiens, OCI-AML2 cells
Experimental: as §1, §2

[10] = tested on: OCI-AML3; test: Cell viability, panel of AML cell lines; assay type: cell-based; conditions: Homo sapiens, OCI-AML-3, OCI-AML3 cells
Experimental: as §1, §2

[11] = tested on: OCI-AML4; test: Cell viability, panel of AML cell lines; assay type: cell-based; conditions: Homo sapiens, OCI-AML4 cells
Experimental: as §1, §2

[12] = tested on: SET2; test: Cell viability, panel of AML cell lines; assay type: cell-based; conditions: Homo sapiens, SET-2, SET2 cells
Experimental: as §1, §2

[13] = tested on: SKM1; test: Cell viability, panel of AML cell lines; assay type: cell-based; conditions: Homo sapiens, SKM-1, SKM1 cells
Experimental: as §1, §2

[14] = tested on: SKNO1; test: Cell viability, panel of AML cell lines; assay type: cell-based; conditions: Homo sapiens, SKNO-1, SKNO1 cells
Experimental: as §1, §2

[15] = tested on: THF-1; test: Cell viability, panel of AML cell lines; assay type: cell-based; conditions: Homo sapiens, THF-1 cells
Experimental: as §1, §2

[16] = tested on: THP-1; test: Cell viability, panel of AML cell lines; assay type: cell-based; conditions: Homo sapiens, THP-1 cells
Experimental: as §1, §2

[17] = tested on: AML cell lines (HL60/VCR, OCI-AML2, THP-1); test: Viability of AML cell lines, MTS and Cell Titer Glo (FIGS. 2, 4, Table 2); assay type: cell-based, human; conditions: for EC50: Homo sapiens, 24 h
Experimental: as §1
AML cell lines and normal samples (PBMCs and/or CD34+ cells) were treated for 24 hours with SACLAC (FIG. 4A-7 cell lines) and similar AC inhibitor SABRAC (2-bromo-N-((2S,3R)-1,3-dihydroxyoctadecan-2-yl)acetamide) (FIG. 4B-four cell lines). Viability was assessed by MTS and Cell Titer Glo viability assays. EC50 values (FIG. 4C) were graphed to visualize fold-change between AML and normal cells with treatment of each compound. […] Cells tested for SABRAC were HL60/VCR and OCI-AML2 AML cell lines and two normal PBMC control samples (PBMC1 and PBMC2). The same four cell types were tested for SACLAC, as well as the AML cell line THP-1 and two normal CD34+ cell control samples (CD34+1 and CD34+2).
Next, we tested the toxicity of SACLAC and a similar published AC inhibitor SABRAC^17 to normal hematopoietic cells to ensure that AML cells are selectively targeted by the compound (FIG. 4A). […] This degree of selectivity was unexpected but extremely important for potential clinical use. […] This remarkable increase in selectivity is a surprising discovery that greatly exceeds the predicted similarity in compound behavior that one may expect with a simple substitution of one halogen for another (Cl for Br).

[18] = tested on: HL60/VCR and OCI-AML2 AML cell lines; test: Apoptosis in AML cell lines by flow cytometry; assay type: cell-based, human; conditions: 48 hours, dose-dependent
Experimental: as §1, §2

[19] = tested on: S1P and ceramide in HL60/VCR and OCI-AML2; test: Lipid metabolites by mass spectrometry in AML cell lines; assay type: cell-based, human; conditions: HL60/VCR and OCI-AML2, 24 hours
Experimental: Representative human AML cell lines (FIG. 3A; upper and lower panels) HL60/VCR and (FIG. 3B; upper and lower panels) OCI-AML2 were treated with SACLAC for 24 hours. Concentrations of lipid metabolites were determined by mass spectrometry. *, p<0.05; **, p<0.01 (Student's t-test). Upper panels represent Lipid in pmol/mg protein and lower panels represent Ceramide in pmol/mg protein.
We also characterized lipid changes in response to SACLAC treatment in order to provide further evidence of potent AC inhibition (FIGS. 3A-3B). […] Thus, the inhibitor blocks a common mechanism of ceramide detoxification in AML and is likely to provide therapeutic benefit by facilitating ceramide accumulation and apoptotic death of these proliferative cells.

CCCCCCCCCCCCCCC[C@@H](O)[C@H](CO)NC(=O)CCl [SACLAC, 2-chloro-N-((2S,3R)-1,3-dihydroxyoctadecan-2-yl)acetamide]
EC50 ([1]; 24 h, read-out: EC50 24 h): 2500 nM | EC50 ([1]; 48 h, read-out: EC50 48 h): 3000 nM | EC50 ([2]; 24 h, read-out: EC50 24 h): 3300 nM | EC50 ([2]; 48 h, read-out: EC50 48 h): 2400 nM | EC50 ([3]; 24 h, read-out: EC50 24 h): 3200 nM | EC50 ([3]; 48 h, read-out: EC50 48 h): 2700 nM | EC50 ([4]; 24 h, read-out: EC50 24 h): 500 nM | EC50 ([4]; 48 h, read-out: EC50 48 h): 700 nM | EC50 ([5]; 24 h, read-out: EC50 24 h): 2100 nM | EC50 ([5]; 48 h, read-out: EC50 48 h): 1200 nM | EC50 ([6]; 24 h, read-out: EC50 24 h): 7800 nM | EC50 ([6]; 48 h, read-out: EC50 48 h): 6000 nM | EC50 ([7]; 24 h, read-out: EC50 24 h): 2300 nM | EC50 ([7]; 48 h, read-out: EC50 48 h): 1300 nM | EC50 ([8]; 24 h, read-out: EC50 24 h): 1100 nM | EC50 ([8]; 48 h, read-out: EC50 48 h): 800 nM | EC50 ([9]; 24 h, read-out: EC50 24 h): 1800 nM | EC50 ([9]; 48 h, read-out: EC50 48 h): 1100 nM | EC50 ([10]; 24 h, read-out: EC50 24 h): 600 nM | EC50 ([10]; 48 h, read-out: EC50 48 h): 400 nM | EC50 ([11]; 24 h, read-out: EC50 24 h): 1400 nM | EC50 ([11]; 48 h, read-out: EC50 48 h): 700 nM | EC50 ([12]; 24 h, read-out: EC50 24 h): 2600 nM | EC50 ([12]; 48 h, read-out: EC50 48 h): 3300 nM | EC50 ([13]; 24 h, read-out: EC50 24 h): 1600 nM | EC50 ([13]; 48 h, read-out: EC50 48 h): 700 nM | EC50 ([14]; 24 h, read-out: EC50 24 h): 900 nM | EC50 ([14]; 48 h, read-out: EC50 48 h): 800 nM | EC50 ([15]; 24 h, read-out: EC50 24 h): 6700 nM | EC50 ([15]; 48 h, read-out: EC50 48 h): 4800 nM | EC50 ([16]; 24 h, read-out: EC50 24 h): 2600 nM | EC50 ([16]; 48 h, read-out: EC50 48 h): 2200 nM | viability ([17]; HL60/VCR and OCI-AML2, MTS, 24 and 48 hours, dose-dependent): reduced viability | EC50 ([17]; mean of AML cell lines, 24 hours, read-out: EC50 AML): 2270 nM | EC50 ([17]; SACLAC: HL60/VCR, OCI-AML2, THP-1, SABRAC: HL60/VCR, OCI-AML2, order of cells not given, read-out: EC50, single AML cell lines (FIG. 4A, 4B)): 2600 nM | apoptosis [18]: induced apoptosis | S1P [19]: significantly reduced S1P | ceramide [19]: increased ceramide
